Experimental data as given in patent publication US20230011269A1, “PHARMACEUTICAL COMPOSITION COMPRISING A POTENT INHIBITOR OF URAT1” (Ardea Biosciences, Inc., priority 2015, published 2023).

Key:
[1] = test system: serum urate; assay: Phase 1 single dose study, immediate release formulations: serum urate lowering; assay type: in vivo, human; settings: mean maximum observed percentage change from pre-dose in serum urate concentrations (Emax)
Source text: A phase 1, randomized, double-blind, placebo-controlled study in healthy adult male volunteers evaluated single rising doses and the preliminary food effect for 2-((3-(4-cyanonaphthalen-1-yl)pyridine-4-yl)thio)-2-methylpropanoic acid at 6 dose groups with 8 subjects per group. […] Subjects in each dose group were randomized to receive a single dose of either 2-((3-(4-cyanonaphthalen-1-yl)pyridine-4-yl)thio)-2-methylpropanoic acid (6 subjects) or placebo (2 subjects). 2-((3-(4-cyanonaphthalen-1-yl)pyridine-4-yl)thio)-2-methylpropanoic acid was supplied as 1 mg oral solution, 2 mg oral solution, 5 mg tablets, or 20 mg tablets (depending on dose level).
The mean plasma concentration-time profiles for the IR formulations under fed and fasted conditions are depicted in FIGS. 3a and 3b. Absorption of 2-((3-(4-cyanonaphthalen-1-yl)pyridine-4-yl)thio)-2-methylpropanoic acid following a single oral dose under fasted conditions was rapid. […] When 2-((3-(4-cyanonaphthalen-1-yl)pyridine-4-yl)thio)-2-methylpropanoic acid was administered with food, slightly slower absorption and lower exposure were observed. […] Important pharmacodynamic parameters related to the serum Uric Acid lowering effects are shown in the following two tables: […]

[2] = Phase 1 study of MR formulations MR1-5: plasma pharmacokinetics; assay type: in vivo; settings: male, human, oral, 5 mg, MR1-MR5 formulations, fasted and fed (Table 9), read-out: average terminal half-life
Procedure: A Phase 1, randomized study to evaluated the PK, PD, and safety and tolerability of 2-((3-(4-cyanonaphthalen-1-yl)pyridine-4-yl)thio)-2-methylpropanoic acid MR formulations in n=12 healthy adult male subjects in fasted and fed states. This study evaluated a total of 5 MR formulations at a 5 mg dose. The MR formulations tested are those described in Examples 2-6. Plasma samples for PK analysis were collected at the following time points: Pre-dose (within 30 minutes before dosing) and at 0.25, 0.5, 0.75, 1, 1.5, 2, 2.5, 3, 4, 5, 6, 8, 10, 12, 24, 30, 36, 48, 54, 60 and 72 hours post-dose. A summary of the mean plasma pharmacokinetic parameters following administration of the MR compositions of 2-((3-(4-cyanonaphthalen-1-yl)pyridine-4-yl)thio)-2-methylpropanoic acid are provided in Table 9.

[3] = Phase 1 crossover study MR4 4 x 2.5 mg vs 10 mg tablet, food effect: plasma pharmacokinetics; settings: male, human, in vivo
Procedure: A Phase 1, randomized, open label, 4 way crossover PK and PD study in healthy adult male subjects designed to assess the relative bioavailability of 2-((3-(4-cyanonaphthalen-1-yl)pyridine-4-yl)thio)-2-methylpropanoic acid 2.5 mg MR tablets administered as a 10 mg dose (4×2.5 mg tablets) and a single 2-((3-(4-cyanonaphthalen-1-yl)pyridine-4-yl)thio)-2-methylpropanoic acid 10 mg MR tablet. The 10 mg MR tablet was prepared as described in Example 5a. This study also assessed the effect of a low fat and high fat meal on the PK and PD of 2-((3-(4-cyanonaphthalen-1-yl)pyridine-4-yl)thio)-2-methylpropanoic acid 10 mg MR tablets. Sixteen subjects were randomized to 1 of 4 treatment sequences. The treatments administered on Days 1 or 5 according to the randomization schedule were as follows: • Treatment A: 10 mg dose of 2-((3-(4-cyanonaphthalen-1-yl)pyridine-4-yl)thio)-2-methylpropanoic acid, administered as 4×2.5 mg ER tablets, in the fasted state. • Treatment B: 10 mg dose of 2-((3-(4-cyanonaphthalen-1-yl)pyridine-4-yl)thio)-2-methylpropanoic acid, administered as a single 10 mg ER tablet, in the fasted state. […]

half-life [2]: 10 to 28 h
decrease of AUC∞ by a low-fat meal compared with the fasted state [3]: ~17%
decrease of Cmax by a low-fat meal compared with the fasted state [3]: approximately 21%
SMILES: CC(C)(Sc1ccncc1-c1ccc(C#N)c2ccccc12)C(=O)O [2-((3-(4-cyanonaphthalen-1-yl)pyridine-4-yl)thio)-2-methylpropanoic acid]
Mean % change in sUA from predose ([1]; 2 mg/Fasted): 8%
Mean % change in sUA from predose ([1]; 5 mg/Fasted): 15%
Mean % change in sUA from predose ([1]; 20 mg/Fasted): 43%
Mean % change in sUA from predose ([1]; 40 mg/Fasted): 58%
